The text below walks through data of PMC7948503, “Optimization of a peptide ligand for the adhesion GPCR ADGRG2 provides a potent tool to explore receptor biology” (The Journal of Biological Chemistry, 2020).

Non-standard residues stand in square brackets, D forms with d. Residues, ends and D or L forms follow the SMILES beside them. *: point of attachment. FITC = O=C1OC2(c3ccc(O)cc3Oc3cc(O)ccc32)c2ccc(NC(=S)*)cc21; Phe(4-Me) = Cc1ccc(C[C@H](N)C(=O)O)cc1

Holding throughout (experiment): BRET binding of FITC-VPM-p15
For one assay, the target named is T1, Rluc-ADGRG2-ΔGPS-β Y765A (Mus musculus, UniProt Q8CJ12, Y779A).
T1 construct: the entire ECD (including the entire GPS motif) was removed (ADGRG2-ΔGPS-β); expressed in transfected cells; host or cells: HEK293
To be noted: mutant Y765A. The method, then: (§1) The binding capacities of ADGRG2 WT or its mutants for VPM-p15 were determined by BRET assay, which has been used in previous studies ([27], [28], [29]). We fused the N terminus of ADGRG2 with a Rluc fragment and coupled FITC to the C terminus of VPM-p15 to facilitate BRET measurement. We stimulated the HEK293 cells transfected with Rluc-ADGRG2-ΔGPS-β wildtype (WT) or mutants by increasing the concentration of FITC-conjugated VPM-p15, and their binding abilities were determined by fitting the data with the saturation curves.
(§2) In the detection of binding capacities of ADGRG2 WT or its mutants for VPM-p15, HEK293 cells were transfected with Rluc-ADGRG2-ΔGPS-β or mutants. Transfected cells were stimulated by increasing the concentration of FITC-conjugated VPM-p15. Binding capacities were determined by BRET, EC50 values of ADGRG2 WT and its mutants for binding VPM-p15 were calculated by GraphPad, and data were normalized by EC50 of WT.

The next assay has as its target Rluc-ADGRG2-ΔGPS-β I758A. Also on record: species or system mouse. To be noted: HEK293, BRET saturation binding, repeated 6 times. The method, then:
as §1, §2
On the technique in general: In BRET a luciferase serves as donor, and the signal depends on an acceptor being close.

A further assay concerns the target Rluc-ADGRG2-ΔGPS-β W824A. Further details: species or system mouse. To be noted: HEK293, BRET saturation binding, repeated 6 times. The method, then:
as §1, §2

Another assay has as its target Rluc-ADGRG2-ΔGPS-β W757A. Further details: species or system mouse. The conditions noted are these: HEK293, BRET saturation binding, repeated 6 times. The method, then: as §1, §2

T1 sequence (Q8CJ12 618-1009 Y779A limits assumed): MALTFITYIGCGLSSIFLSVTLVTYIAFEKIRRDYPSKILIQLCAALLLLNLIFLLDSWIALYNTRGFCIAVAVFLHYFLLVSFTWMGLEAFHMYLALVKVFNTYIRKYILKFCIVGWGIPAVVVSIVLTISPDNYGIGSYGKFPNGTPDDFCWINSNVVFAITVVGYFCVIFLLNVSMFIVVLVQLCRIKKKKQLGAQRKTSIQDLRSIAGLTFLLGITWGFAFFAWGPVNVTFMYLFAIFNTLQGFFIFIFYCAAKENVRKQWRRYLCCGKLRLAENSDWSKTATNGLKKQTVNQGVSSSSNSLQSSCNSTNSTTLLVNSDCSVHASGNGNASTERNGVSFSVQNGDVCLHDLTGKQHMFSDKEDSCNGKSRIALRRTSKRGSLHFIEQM

Regarding `CC[C@H](C)[C@H](NC(=O)CNC(=O)[C@H](Cc1ccc(C)cc1)NC(=O)[C@H](CO)NC(=O)[C@@H](N)C(C)C)C(=O)N[C@@H](CC(C)C)C(=O)N[C@@H](CC(C)C)C(=O)N[C@@H](CC(=O)O)C(=O)N[C@@H](CC(C)C)C(=O)N[C@@H](CO)C(=O)N[C@@H](CCCNC(=N)N)C(=O)N[C@H](C(=O)N[C@@H](CO)C(=O)N[C@@H](CC(C)C)C(=O)N1CCC[C@H]1C(=O)N[C@@H](CCCCNC(=S)Nc1ccc2c(c1)C(=O)OC21c2ccc(O)cc2Oc2cc(O)ccc21)C(=O)O)[C@@H](C)O` [FITC-VPM-p15] (H-VS[Phe(4-Me)]GILLDLSRTSLPK(FITC)-OH; N-terminus and C-terminus assumed), the Fmut on Rluc-ADGRG2-ΔGPS-β Y765A (Kd(mutated ADGRG2-ΔGPS-β)/Kd(WT)) came to 0.967. This compound also registered a Bmax on Rluc-ADGRG2-ΔGPS-β Y765A (binding Bmax (BRET)) of 0.796±0.013. In addition, the “Binding to mutant (result in words across EC50 / Fmut / Bmax)” value on Rluc-ADGRG2-ΔGPS-β I758A, at Rluc-ADGRG2-ΔGPS-β W824A and on Rluc-ADGRG2-ΔGPS-β W757A was “No binding” each time.
